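In this assay, cells in 96-well plates receive the compound at five concentrations for 48 hours. Endpoints are linearly interpolated between the surrounding concentrations. GI50: concentration for 50% inhibition of growth.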 Active and inactive are the calls of the source. No stated cut-off is given here; in the data, active = GI50 up to about 1.1 µM and inactive = higher.
Legend:
Assay in all cases: DTP human tumour cell line panel, 48 h
[1] = system: NCI-H23
[2] = system: NCI-H522
[3] = system: HOP-18
[4] = system: Malme-3M
[5] = system: SF-539
[6] = system: COLO 205
[7] = system: ACHN
[8] = system: HT-29
[9] = system: SW-620
[10] = system: KM12
[11] = system: OVCAR-5
[12] = system: HCT-116
[13] = system: DMS-114
[14] = system: SN12C
[15] = system: SK-OV-3
[16] = system: SK-MEL-28
[17] = system: SNB-19
[18] = system: UO-31
[19] = system: RXF 393
[20] = system: U-251
[21] = system: 786-0
[22] = system: HCC 2998
[23] = system: UACC-257
[24] = system: EKVX
[25] = system: SK-MEL-5
[26] = system: CAKI-1
[27] = system: MOLT-4
[28] = system: DMS-273
[29] = system: K562
[30] = system: SNB-75
[31] = system: CCRF-CEM
[32] = system: SF-268
[33] = system: NCI-H226
[34] = system: SF-295
[35] = system: A498
[36] = system: SK-MEL-2
[37] = system: UACC-62
[38] = system: HOP-92
[39] = system: TK-10
[40] = system: M19-MEL
[41] = system: SNB-78
[42] = system: RPMI-8226
[43] = system: DLD-1
[44] = system: OVCAR-8
[45] = system: OVCAR-3
[46] = system: HL-60
[47] = system: LXFL 529
[48] = system: A549
[49] = system: NCI-H460
[50] = system: IGROV-1
[51] = system: SR

Which GI50 [1] does the source give for `COc1cc(C2c3cc4c(cc3[C@@H](NCCCN3CCCC3=O)C3COC(=O)[C@H]23)OCO4)cc(OC)c1O` (some centres not stated) here?
The GI50 was 0.515 µM (active).

And the GI50 [2]?
The GI50 was 0.319 µM (active).

And the GI50 [3]?
The GI50 was > 17.5 µM (inactive).

What about the GI50 [4] of the same compound?
The GI50 was 0.405 µM (active).

And the GI50 [5]?
Its GI50 is 0.393 µM (active).

What about the GI50 [6] of the same compound?
The GI50 was 4.17 µM (inactive).

And the GI50 [7]?
The GI50 was 2.92 µM (inactive).

Which GI50 [8] does the source give for `COc1ccc(C2[C@@H](Cl)C(=O)N2c2ccc(OC)cc2)cc1` (some centres not stated) here?
Its GI50 is > 100 µM (inactive).

What about the GI50 [1] of the same compound?
The GI50 was > 100 µM (inactive).

And the GI50 [9]?
Its GI50 is > 100 µM (inactive).

And the GI50 [10]?
Its GI50 is > 100 µM (inactive).

What about the GI50 [11] of the same compound?
The GI50 was > 100 µM (inactive).

What about the GI50 [12] of the same compound?
The GI50 was 18.6 µM (inactive).

What about the GI50 [13] of the same compound?
The GI50 was 53 µM (inactive).

What about the GI50 [14] of the same compound?
The GI50 was > 100 µM (inactive).

And the GI50 [15]?
The GI50 was 23.1 µM (inactive).

And the GI50 [16]?
The GI50 was > 100 µM (inactive).

And the GI50 [17]?
The GI50 was 45.5 µM (inactive).

And the GI50 [18]?
The GI50 was 56.8 µM (inactive).

And the GI50 [19]?
Its GI50 is 22.4 µM (inactive).

What about the GI50 [20] of the same compound?
The GI50 was > 100 µM (inactive).

What about the GI50 [21] of the same compound?
The GI50 was 36.6 µM (inactive).

What about the GI50 [22] of the same compound?
Its GI50 is > 100 µM (inactive).

What about the GI50 [23] of the same compound?
Its GI50 is 46 µM (inactive).

And the GI50 [24]?
The GI50 was > 100 µM (inactive).

And the GI50 [25]?
The GI50 was > 100 µM (inactive).

What about the GI50 [26] of the same compound?
Its GI50 is 30.4 µM (inactive).

And the GI50 [2]?
The GI50 was 36 µM (inactive).

What about the GI50 [27] of the same compound?
The GI50 was 35.9 µM (inactive).

And the GI50 [28]?
The GI50 was 62.7 µM (inactive).

What about the GI50 [29] of the same compound?
Its GI50 is 19.5 µM (inactive).

What about the GI50 [30] of the same compound?
The GI50 was 15.1 µM (inactive).

And the GI50 [4]?
Its GI50 is 45.9 µM (inactive).

What about the GI50 [31] of the same compound?
The GI50 was 39.1 µM (inactive).

What about the GI50 [32] of the same compound?
The GI50 was > 100 µM (inactive).

And the GI50 [33]?
Its GI50 is > 100 µM (inactive).

What about the GI50 [34] of the same compound?
The GI50 was 28.7 µM (inactive).

What about the GI50 [35] of the same compound?
The GI50 was 12.2 µM (inactive).

What about the GI50 [36] of the same compound?
The GI50 was 62.5 µM (inactive).

What about the GI50 [5] of the same compound?
The GI50 was 19.8 µM (inactive).

What about the GI50 [37] of the same compound?
The GI50 was 33.6 µM (inactive).

What about the GI50 [38] of the same compound?
The GI50 was 11.6 µM (inactive).

And the GI50 [39]?
The GI50 was > 100 µM (inactive).

What about the GI50 [40] of the same compound?
The GI50 was 50.5 µM (inactive).

What about the GI50 [6] of the same compound?
The GI50 was > 100 µM (inactive).

What about the GI50 [41] of the same compound?
Its GI50 is > 100 µM (inactive).

What about the GI50 [42] of the same compound?
The GI50 was 98.6 µM (inactive).

And the GI50 [43]?
Its GI50 is 89.5 µM (inactive).

What about the GI50 [44] of the same compound?
The GI50 was 46.2 µM (inactive).

And the GI50 [45]?
Its GI50 is 93.1 µM (inactive).

What about the GI50 [46] of the same compound?
Its GI50 is 20.4 µM (inactive).

And the GI50 [47]?
Its GI50 is 62.8 µM (inactive).

What about the GI50 [48] of the same compound?
The GI50 was > 100 µM (inactive).

What about the GI50 [7] of the same compound?
Its GI50 is 41.8 µM (inactive).

And the GI50 [49]?
Its GI50 is 51.4 µM (inactive).

And the GI50 [50]?
Its GI50 is > 100 µM (inactive).

What about the GI50 [51] of the same compound?
The GI50 was 40.5 µM (inactive).

Reference: ChEMBL document CHEMBL1201862, “PubChem BioAssay data set” (2004)
